The term IC50 denotes the midpoint of a concentration-inhibition curve.

This note sets out measurements from patent publication US11351164B2, “Inhibitors of indoleamine 2,3-dioxygenase and methods of their use” (BRISTOL-MYERS SQUIBB COMPANY, priority 2016, dated 2022).

The target in the test is T1, human IDO1 (Homo sapiens, UniProt P14902).
T1 construct: expressed in transfected cells
In words: IDO inhibition assay in HEK293 cells stably expressing human IDO1 (kynurenine, Ehrlich reagent, absorbance 490 nm). It is filed as cell-based. Conditions: 20 hours incubation, read-out: IDO1 HEK Human IC50. On the procedure: HEK293 cells were transfected with a pCDNA-based mammalian expression vector harboring human IDO1 cDNA (NM 002164.2) by electroporation. They were cultured in medium (DMEM with 10% FBS) containing 1 mg/ml G418 for two weeks. Clones of HEK293 cells that stably expressed human IDO1 protein were selected and expanded for IDO inhibition assay. The human IDO1/HEK293 cells were seeded at 10,000 cells per 50 μL per well with RPMI/phenol red free media contains 10% FBS in a 384-well black wall clear bottom tissue culture plate (Matrix Technologies LLC) 100 nL of certain concentration of compound was then added to each well using ECHO liquid handling systems. The cells were incubated for 20 hours in 37° C. incubator with 5% CO2. The compound treatments were stopped by adding trichloroacetic acid (Sigma-Aldrich) to a final concentration at 0.2%. The cell plate was further incubated at 50° C. for 30 minute. The equal volume supernatant ([…]) and 0.2% (w/v) Ehrlich reagent (4-dimethylaminobenzaldehyde, Sigma-Aldrich) in glacial acetic acid were mixed in a new clear bottom 384-well plate. This plate was then incubated at room temperature for 30 minute. The absorbance at 490 nm was measured on Envision plate reader. Compound IC50 values were calculated using the counts of 500 nM of a reference standard treatment as one hundred percent inhibition, and counts of no compound but DMSO treatment as zero percent inhibition.

T1 sequence (P14902 whole entry): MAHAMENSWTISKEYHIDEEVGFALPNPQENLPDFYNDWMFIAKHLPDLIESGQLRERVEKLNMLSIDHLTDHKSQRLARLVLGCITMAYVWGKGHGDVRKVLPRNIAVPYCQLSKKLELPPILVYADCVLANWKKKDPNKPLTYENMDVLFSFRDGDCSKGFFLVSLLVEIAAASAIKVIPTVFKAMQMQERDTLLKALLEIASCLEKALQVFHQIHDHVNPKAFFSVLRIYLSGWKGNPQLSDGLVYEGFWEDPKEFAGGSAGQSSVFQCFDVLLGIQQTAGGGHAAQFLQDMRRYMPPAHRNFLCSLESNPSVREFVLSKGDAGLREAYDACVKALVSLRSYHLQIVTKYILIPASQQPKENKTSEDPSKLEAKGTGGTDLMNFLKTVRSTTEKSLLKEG

For the compound `CCC(Nc1nnc(-c2ccc(OC)cc2)o1)[C@H]1CC[C@@H](c2ccnc3ccc(F)cc32)CC1` (mixture of isomers) [Example 48, N-(1-((1s,4s)-4-(6-Fluoroquinolin-4-yl)cyclohexyl)propyl)-5-(4-methoxyphenyl)-1,3,4-oxadiazol-2-amine], the half-inhibitory concentration (IC50) came out at 3.6 nM.
For the compound `CCC(Nc1nnc(-c2ccc(OC)cc2)o1)[C@H]1CC[C@@H](c2ccnc3ccc(F)cc32)CC1` (single isomer, unassigned) [Example 49-1, N-(1-((1s,4s)-4-(6-Fluoroquinolin-4-yl)cyclohexyl)propyl)-5-(4-methoxyphenyl)-1,3,4-oxadiazol-2-amine], the IC50 came to 0.9 nM.
In the case of `CCC(Nc1nnc(-c2ccc(OC)cc2)o1)[C@H]1CC[C@@H](c2ccnc3ccc(F)cc32)CC1` (single isomer, unassigned) [Example 49-2, N-(1-((1s,4s)-4-(6-Fluoroquinolin-4-yl)cyclohexyl)propyl)-5-(4-methoxyphenyl)-1,3,4-oxadiazol-2-amine], the 50% inhibitory concentration (IC50) came out at 177 nM.
The result for `CCC(c1nnc(Nc2ccc(OC)cc2)[nH]1)C1CCC(c2ccnc3ccc(F)cc23)CC1` (single isomer, unassigned) [Example 55, 5-(1-(4-(6-Fluoroquinolin-4-yl)cyclohexyl)propyl)-N-(4-methoxyphenyl)-4H-1,2,4-triazol-3-amine] reads 2000 nM.
The result for `CCC(c1nnc(Nc2ccc(OC)cc2)[nH]1)C1CCC(c2ccnc3ccc(F)cc23)CC1` (single isomer, unassigned) [Example 56, 5-(1-(4-(6-Fluoroquinolin-4-yl)cyclohexyl)propyl)-N-(4-methoxyphenyl)-4H-1,2,4-triazol-3-amine] reads 18.4 nM.
For the compound `CCOCC(Nc1nnc(-c2ccc(OC)cc2)o1)[C@H]1CC[C@@H](c2ccnc(F)c2C)CC1` (single isomer, unassigned) [Example 57-2, N-(2-Ethoxy-1-((1s,4s)-4-(2-fluoro-3-methylpyridin-4-yl)cyclohexyl)ethyl)-5-(4-methoxyphenyl)-1,3,4-oxadiazol-2-amine], the half-inhibitory concentration (IC50) is 330 nM.
As for `CCC(Nc1nnc(-c2ccc(F)cc2)o1)C1CCC(c2ccnc3ccc(C(F)(F)F)cc23)CC1` (single isomer, unassigned) [Example 61, 5-(4-fluorophenyl)-N-(1-((1s,4s)-4-(6-(trifluoromethyl)quinolin-4-yl)cyclohexyl)propyl)-1,3,4-oxadiazol-2-amine], the IC50 came out at 811 nM.
As to `CCC(Nc1nnc(-c2ccc(OC)cc2)o1)[C@H]1CC[C@@H](c2ccnc(F)c2C)CC1` (single isomer, unassigned) [Example 63-2, N-(1-((1s,4s)-4-(2-Fluoro-3-methylpyridin-4-yl)cyclohexyl)propyl)-5-(4-methoxyphenyl)-1,3,4-oxadiazol-2-amine], the IC50 was 141 nM.
With `C[C@@H](c1nnc(-c2ccc(Cl)cc2)o1)[C@H]1CC[C@@H](c2ccnc3ccc(F)cc32)CC1` [Example 4, 2-(4-Chlorophenyl)-5-((R)-1-((1s,4s)-4-(6-fluoroquinolin-4-yl)cyclohexyl)ethyl)-1,3,4-oxadiazole], the half-inhibitory concentration (IC50) was 167 nM.
Take `C[C@@H](c1nnc(-c2ccc(C#N)cc2)s1)[C@H]1CC[C@@H](c2ccnc3ccc(F)cc32)CC1` [Example 6, 4-(5-((R)-1-((1s,4S)-4-(6-Fluoroquinolin-4-yl)cyclohexyl)ethyl)-1,3,4-thiadiazol-2-yl)benzonitrile]: the IC50 worked out at 37 nM.
With `C[C@@H](c1nnc(Nc2ccc(F)cc2)s1)[C@H]1CC[C@@H](c2ccnc3ccc(F)cc32)CC1` [Example 7, N-(4-Fluorophenyl)-5-((R)-1-((1s,4S)-4-(6-fluoroquinolin-4-yl)cyclohexyl)ethyl)-1,3,4-thiadiazol-2-amine] the figure was 543 nM; with `COc1ccc(-c2nnc([C@H](C)[C@H]3CC[C@@H](c4ccnc5ccc(F)cc54)CC3)[nH]2)cc1` [Example 9], 192 nM; with `Cc1ccc(-c2nnc([C@H](C)[C@H]3CC[C@@H](c4ccnc5ccc(F)cc54)CC3)[nH]2)cc1F` [Example 10, 6-fluoro-4-((1S,4s)-4-((R)-1-(5-(3-fluoro-4-methylphenyl)-4H-1,2,4-triazol-3-yl)ethyl)cyclohexyl)quinoline], 747 nM.
The result for `Cc1ccc(-c2nnc([C@H](C)[C@H]3CC[C@@H](c4ccnc5ccc(F)cc54)CC3)[nH]2)cc1` [Example 15, 6-fluoro-4-((1S,4s)-4-((R)-1-(5-p-tolyl-4H-1,2,4-triazol-3-yl)ethyl)cyclohexyl)quinoline] reads 124 nM; that for `Cc1ccc(-c2nnc([C@H](C)[C@H]3CC[C@@H](c4ccnc5ccc(F)cc54)CC3)o2)cc1F` [Example 16, 2-(3-fluoro-4-methylphenyl)-5-((R)-1-((1s,4S)-4-(6-fluoroquinolin-4-yl)cyclohexyl)ethyl)-1,3,4-oxadiazole], 2000 nM.
Consider `C[C@@H](c1nnc(-c2ccc(F)c(Cl)c2)o1)[C@H]1CC[C@@H](c2ccnc3ccc(F)cc32)CC1` [Example 17, 2-(3-chloro-4-fluorophenyl)-((R)-1-((1s,4S)-4-(6-fluoroquinolin-4-yl)cyclohexyl)ethyl)-1,3,4-oxadiazole], for which the IC50 worked out at 239 nM.
On to `COc1ccc(Nc2nnc([C@H](C)[C@H]3CC[C@@H](c4ccnc5ccc(F)cc54)CC3)[nH]2)cc1` [Example 20, 5-((R)-1-((1s,4s)-4-(6-Fluoroquinolin-4-yl)cyclohexyl)ethyl)-N-(4-methoxyphenyl)-4H-1,2,4-triazol-3-amine], for which the IC50 was 135 nM.
For `C[C@@H](c1nnc(Nc2ccc(F)cc2)[nH]1)[C@H]1CC[C@@H](c2ccnc3ccc(F)cc32)CC1` [Example 21, N-(4-Fluorophenyl)-5-((R)-1-((1s,4s)-4-(6-fluoroquinolin-4-yl)cyclohexyl)ethyl)-4H-1,2,4-triazol-3-amine], the IC50 was found to be 68.2 nM.
On to `C[C@@H](Nc1nnc(-c2ccc(Cl)cc2)o1)[C@H]1CC[C@@H](c2ccnc3ccc(F)cc32)CC1` [Example 23, 5-(4-Chlorophenyl)-N—((R)-1-((1s,4S)-4-(6-fluoroquinolin-4-yl)cyclohexyl)ethyl)-1,3,4-oxadiazol-2-amine], for which the IC50 stood at 45.3 nM.
For the compound `COc1ccc(-c2nnc(N[C@H](C)[C@H]3CC[C@@H](c4ccnc5ccc(F)cc54)CC3)o2)cc1` [Example 25, N—((R)-1-((1s,4S)-4-(6-Fluoroquinolin-4-yl)cyclohexyl)ethyl)-5-(4-methoxyphenyl)-1,3,4-oxadiazol-2-amine], the half-maximal inhibitory concentration (IC50) came to 9.6 nM.
The result for `COc1ccc(-c2nnc(N[C@H](C)[C@H]3CC[C@@H](c4ccnc5ccc(F)cc54)CC3)s2)cc1` [Example 26, N—((R)-1-((1s,4S)-4-(6-Fluoroquinolin-4-yl)cyclohexyl)ethyl)-5-(4-methoxyphenyl)-1,3,4-thiadiazol-2-amine] reads 61.9 nM.
As to `C[C@@H](Nc1nnc(C2CCCCC2)o1)[C@H]1CC[C@@H](c2ccnc3ccc(F)cc32)CC1` [Example 27, 5-Cyclohexyl-N—((R)-1-((1s,4S)-4-(6-fluoroquinolin-4-yl)cyclohexyl)ethyl)-1,3,4-oxadiazol-2-amine], the half-inhibitory concentration (IC50) is 9 nM.
With `C[C@@H](Nc1nnc(C2CC2)o1)[C@H]1CC[C@@H](c2ccnc3ccc(F)cc32)CC1` [Example 28, 5-cyclopropyl-N-((R)-1-((1s,4S)-4-(6-fluoroquinolin-4-yl)cyclohexyl)ethyl)-1,3,4-oxadiazol-2-amine] the figure was 37.1 nM; with `C[C@@H](Nc1nnc(-c2ccc(F)cc2)o1)[C@H]1CC[C@@H](c2ccnc3ccc(F)cc32)CC1` [Example 31, 5-(4-fluorophenyl)-N-((R)-1-((1s,4S)-4-(6-fluoroquinolin-4-yl)cyclohexyl)ethyl)-1,3,4-oxadiazol-2-amine], 42.7 nM.
With `Cc1csc(-c2nnc(N[C@H](C)[C@H]3CC[C@@H](c4ccnc5ccc(F)cc54)CC3)o2)n1` [Example 32, N-((R)-1-((1s,4S)-4-(6-fluoroquinolin-4-yl)cyclohexyl)ethyl)-5-(4-methylthiazol-2-yl)-1,3,4-oxadiazol-2-amine], the IC50 worked out at 3.5 nM.
The result for `COc1ccc(-c2nnc(N[C@H](C)[C@H]3CC[C@@H](c4ccnc5ccc(F)cc54)CC3)o2)cn1` [Example 33, N-((R)-1-((1s,4S)-4-(6-fluoroquinolin-4-yl)cyclohexyl)ethyl)-5-(6-methoxypyridin-3-yl)-1,3,4-oxadiazol-2-amine] reads 64.1 nM; that for `COCc1nnc(N[C@H](C)[C@H]2CC[C@@H](c3ccnc4ccc(F)cc43)CC2)o1` [Example 34, N-((R)-1-((1s,4S)-4-(6-fluoroquinolin-4-yl)cyclohexyl)ethyl)-5-(methoxymethyl)-1,3,4-oxadiazol-2-amine], 38.6 nM; that for `C[C@@H](Nc1nnc(-c2ccc(-c3nccs3)cc2)o1)[C@H]1CC[C@@H](c2ccnc3ccc(F)cc32)CC1` [Example 35, N-((R)-1-((1s,4S)-4-(6-fluoroquinolin-4-yl)cyclohexyl)ethyl)-5-(4-(thiazol-2-yl)phenyl)-1,3,4-oxadiazol-2-amine], 1000 nM.
